Results on three compounds are retold here after article PMC10785037, “Mechanisms for cardiac calcium pump activation by its substrate and a synthetic allosteric modulator using fluorescence lifetime imaging” (PNAS Nexus, 2023).

Structures are written as SMILES.

What all share (format): biochemical
Test [1] deals with T1, SERCA2a (cardiac sarcoplasmic reticulum Ca2+-ATPase) (Sus scrofa, UniProt P11607).
T1 construct: gene ATP2A2; native SERCA2a in enriched pig cardiac SR microsomes
Put plainly: NADH-coupled ATPase assay, ten-point concentration-response (activation).

The target of test [2] is T1, SERCA2a (cardiac sarcoplasmic reticulum Ca2+-ATPase). Put plainly: NADH-coupled ATPase assay (activation; bell-shaped curve, aggregation suspected at high concentration). The source says:
NADH-coupled ATPase assay (activation; bell-shaped curve, aggregation suspected at high concentration) on SERCA2a (cardiac sarcoplasmic reticulum Ca2+-ATPase) | CP-154526 also activates SERCA2a in the high nM to low µM range, with an observed maximal increase in Vmax

The next test has as its target T2, Na+/K+-ATPase NKA-α1 (Sus scrofa, UniProt P05024).
T2 construct: gene ATP1A1
Put plainly: ATPase activity assay.

T1 sequence (P11607 1-997 isoform P11607-2): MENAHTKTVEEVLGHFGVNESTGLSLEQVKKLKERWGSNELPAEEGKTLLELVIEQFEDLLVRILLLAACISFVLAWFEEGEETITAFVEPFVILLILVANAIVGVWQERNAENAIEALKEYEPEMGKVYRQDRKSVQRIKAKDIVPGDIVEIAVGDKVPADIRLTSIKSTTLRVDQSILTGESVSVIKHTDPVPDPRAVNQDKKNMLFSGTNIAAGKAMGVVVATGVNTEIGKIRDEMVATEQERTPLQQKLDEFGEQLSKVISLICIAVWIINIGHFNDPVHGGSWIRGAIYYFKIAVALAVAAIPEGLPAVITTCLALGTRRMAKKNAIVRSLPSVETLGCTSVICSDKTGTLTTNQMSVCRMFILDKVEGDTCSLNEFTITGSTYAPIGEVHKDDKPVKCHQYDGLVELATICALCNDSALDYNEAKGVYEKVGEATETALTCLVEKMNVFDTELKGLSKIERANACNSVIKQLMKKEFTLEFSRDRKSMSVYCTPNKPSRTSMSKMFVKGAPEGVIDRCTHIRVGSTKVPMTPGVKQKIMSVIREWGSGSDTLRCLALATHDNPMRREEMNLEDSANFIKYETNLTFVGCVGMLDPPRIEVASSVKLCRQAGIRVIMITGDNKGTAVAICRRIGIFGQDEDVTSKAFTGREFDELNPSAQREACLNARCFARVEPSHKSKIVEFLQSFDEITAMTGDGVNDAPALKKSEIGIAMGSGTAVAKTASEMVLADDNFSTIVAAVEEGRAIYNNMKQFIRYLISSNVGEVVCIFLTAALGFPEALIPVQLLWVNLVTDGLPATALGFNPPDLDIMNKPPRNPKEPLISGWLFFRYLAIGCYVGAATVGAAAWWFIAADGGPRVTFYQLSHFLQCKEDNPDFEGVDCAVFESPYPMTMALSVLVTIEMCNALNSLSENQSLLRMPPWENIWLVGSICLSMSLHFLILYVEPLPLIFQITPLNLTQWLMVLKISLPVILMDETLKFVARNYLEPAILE

One may read the EC50 as the concentration at which the effect is half-maximal. Low values mean an effect from little substance, high ones a need for much substance. For `Cc1ccc2cccc(NC(=O)c3ccc(OC(C)C)cc3)c2n1` [CDN1163, N-(2-methylquinolin-8-yl)-4-propan-2-yloxybenzamide], in test [1], a half-maximal response (EC50) required 2300 nM.

`CCCCN(CC)c1nc(C)nc2c1c(C)cn2-c1c(C)cc(C)cc1C` [CP-154526, N-butyl-N-ethyl-2,5-dimethyl-7-(2,4,6-trimethylphenyl)pyrrolo[2,3-d]pyrimidin-4-amine]: the “NADH-coupled ATPase assay (activation); bell-shaped curve, aggregation suspected” value in test [2] was 28% maximal increase in Vmax at 2.5.

For orientation: IC50 means the concentration that inhibits the measured activity by half. In turn, `C[C@]12CC/C(=N\OCCN)C[C@@H]1C(=O)C[C@@H]1[C@@H]2CC[C@]2(C)C(=O)CC[C@@H]12` [istaroxime, (3E,5S,8R,9S,10R,13S,14S)-3-(2-aminoethoxyimino)-10,13-dimethyl-1,2,4,5,7,8,9,11,12,14,15,16-dodecahydrocyclopenta[a]phenanthrene-6,17-dione] yielded an IC50 on Na+/K+-ATPase NKA-α1 of 470 nM.
